Data as given in patent US7517907B2, “Pharmaceutical/cosmetic compositions comprising a novel RARbeta receptor-activating ligand” (Galderma Research & Development, priority 2003, dated 2009).

What was measured:
RARbeta [1] = biological target: T1, RARbeta (Homo sapiens, UniProt P10826); assay: Transactivation assay (luciferase reporter, HeLa stable transfectants), RARbeta; format: cell-based
T1 construct: RARbeta Kdapp; RARbeta AC50; other: maximum level of activity obtained, relative to 100% control total agonist
T1 sequence (P10826 183-417 limits assumed): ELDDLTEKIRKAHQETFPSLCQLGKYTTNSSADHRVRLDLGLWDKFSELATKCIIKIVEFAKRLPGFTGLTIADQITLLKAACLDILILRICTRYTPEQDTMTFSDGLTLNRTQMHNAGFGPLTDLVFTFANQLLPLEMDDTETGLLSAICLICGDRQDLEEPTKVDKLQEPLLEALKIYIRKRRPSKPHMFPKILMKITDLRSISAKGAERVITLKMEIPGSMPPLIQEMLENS
Text: (§1) The compounds according to the invention have activating properties on RARbeta-type receptors. This RARbeta receptor-activating activity can in particular be measured in a transactivation assay by means of the dissocation constant Kdapp (apparent), the AC50 (concentration giving 50% of the activity of the reference molecule) and also by means of the % activation.
(§2) The activation of receptors with an agonist (activator) in HeLa cells leads to the expression of a reporter gene, luciferase, which, in the presence of a substrate, generates light. The activation of the receptors can thus be measured by quantifying the luminescence produced after incubating the cells in the presence of a reference antagonist. Activating products will displace the antagonist from its site, thus allowing activation of the receptor. The activity is measured by quantifying the increase in light produced. This measurement makes it possible to determine the activating activity of the compound according to the invention.
(§3) In this study, a constant is determined which represents the affinity of the molecule for the receptor. Since this value can fluctuate depending on the basal activity and the expression of the receptor, it is referred to as the Kd apparent (Kdapp).
(§4) To determine this constant, “crossed curves” of the test product against a reference antagonist, otherwise referred to as reference ligand, 4-(5,5-dimethyl-8-p-tolyl-5,6-dihydronaphthalen-2-ylethynyl)benzoic acid, are realized in 96-well plates. The test product is used at 10 concentrations and the reference antagonist at 7 concentrations. In each, the cells are in contact with a concentration of the test product and with a concentration of the reference antagonist, 4-(5,5-dimethyl-8-p-tolyl-5,6-dihydronaphthalen-2-ylethynyl)benzoic acid. […]
(§5) These crossed curves make it possible to determine the AC50 values (concentration at which 50% activation is observed) for the reference ligand at various concentrations of test product. These AC50 values are used to calculate the Schild regression by plotting a straight line corresponding to the Schild equation (“quantitation in receptor pharmacology” Terry P. Kenakin, Receptors and Channels, 2001, 7, 371-385).
(§6) In the case of an agonist, an AC50 value (concentration giving 50% activity) is calculated by plotting the curve of the product at the concentration of the reference ligand that gives 80% activation. The % activation which corresponds to the maximum level of activity obtained is also measured. […]
(§7) The culture medium is removed by turning the plates over, and 100 μl of a 1:1 PBS/luciferin mixture are added to each well. After 5 minutes, the plates are read using a luminescence reader.

RARbeta [2] = assay: as above; format: cell-based, human; settings: RARbeta Kdapp to RARalpha or RARgamma Kdapp
Text: as §1, §2, §3, §4, §5, §6, §7

RARgamma = biological target: T2, RARgamma (Homo sapiens, UniProt P13631); assay: Transactivation assay (luciferase reporter, HeLa stable transfectants), RARgamma; format: cell-based
T2 sequence (P13631 185-419 limits assumed): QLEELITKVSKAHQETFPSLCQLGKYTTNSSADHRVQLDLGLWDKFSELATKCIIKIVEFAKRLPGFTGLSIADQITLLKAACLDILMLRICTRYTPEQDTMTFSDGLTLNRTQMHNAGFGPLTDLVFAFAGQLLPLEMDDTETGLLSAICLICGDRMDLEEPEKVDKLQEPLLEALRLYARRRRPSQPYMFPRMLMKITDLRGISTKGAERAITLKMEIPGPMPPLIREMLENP
Text: [The procedure below names another target; the source lists this target under the same test.] as §1, §2
(§8) In this study, a constant is determined which represents the affinity of the molecule for the receptor. […]
as §5, §6, §7

RARalpha = biological target: T3, RARalpha (Homo sapiens, UniProt P10276); assay: Transactivation assay (luciferase reporter, HeLa stable transfectants), RARalpha; format: cell-based
T3 sequence (P10276 183-417 limits assumed): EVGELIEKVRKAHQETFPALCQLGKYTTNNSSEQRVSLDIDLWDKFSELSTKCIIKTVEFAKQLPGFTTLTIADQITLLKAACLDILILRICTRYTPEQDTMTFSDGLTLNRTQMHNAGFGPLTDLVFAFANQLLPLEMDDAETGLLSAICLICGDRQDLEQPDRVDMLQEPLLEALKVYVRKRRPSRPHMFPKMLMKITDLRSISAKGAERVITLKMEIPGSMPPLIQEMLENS
Text: [The procedure below names another target; the source lists this target under the same test.] as §1, §2, §8, §5, §6, §7

[3] = concentration giving 50% activity, at the reference ligand concentration giving 80% activation, HeLa cells
[4] = maximum level of activity obtained, relative to 100% control total agonist

In the case of `CC1(C)OCC(COc2ccc(-c3ccc4cc(C(=O)O)ccc4c3)cc2C23CC4CC(CC(C4)C2)C3)O1` (stereo not shown) [Ex. 1, 6-[3-adamantan-1-yl-4-(2,2-dimethyl[1,3]dioxolan-4-ylmethoxy)phenyl]naphthalene-2-carboxylic acid], the Kd (RARbeta [1]; apparent Kd from Schild regression, crossed curves against reference antagonist, HeLa cells, read-out: RARbeta Kdapp) is reported as 0.06 µM, the AC50 (RARbeta [1]; [3]) is reported as 0.012 µM and the RARbeta % activation (RARbeta [1]; [4]) is reported as 100%. The “ratio of the Kdapp values R” value (RARbeta [2]) was 0.015, the Kd (RARgamma; apparent Kd from Schild regression, crossed curves against reference antagonist, HeLa cells, read-out: RARgamma Kdapp) was 4 µM and the AC50 (RARgamma; [3]) was 2 µM. It also gave an RARgamma % activation (RARgamma; [4]) of 40%, a Kd (RARalpha; apparent Kd from Schild regression, crossed curves against reference antagonist, HeLa cells, read-out: RARalpha Kdapp) of 8 µM and an AC50 (RARalpha; [3]) of 1.8 µM. For the same compound, the RARalpha % activation (RARalpha; [4]) was 20%.
